“And” between values parts separate entries of the source, which are not always exact repeats. Identical values can stand only once.
Legend:
PSMA [1] = biological target: T1, PSMA (Homo sapiens, UniProt Q04609); assay: In vitro competition binding assay with [18F]DCFPyL as radioligand, PC3(+) tumor membrane preparations
T1 construct: expressed in transfected cells; host or cells: PC3(+) (PC3 human prostate cancer cells transfected with human PSMA), grown as xenograft tumors in athymic mice; tumor membrane preparations

PC3(−) xenografts = assay: In vivo biodistribution in PC3(−) xenograft mice (negative control); conditions: 60 min; mean ± SE, n = 8–10
Method: (§1) PC3(−) (wildtype human prostate cancer cell line, PSMA negative) and PC3(+) (transfected with human PSMA) were provided by Dr. Hisataka Kobayashi. Cell lines were grown at 37 °C in 5% CO2 in RPMI-1640 supplemented with 10% FBS, 2 mM L-glutamine and Pen/Strep/Amphotericin B. PC3(+) and PC3(−) cell suspensions [2 × 10^6 cells; PBS:Matrigel (70:30)] from in vitro cell culture were subcutaneously implanted (right shoulder) into athymic mice (Athymic NCr- nu/nu, Charles River Laboratory, 4 weeks old) for use as positive and negative controls, respectively, for in vitro or in vivo studies. When tumors reached the appropriate size (>100 mg) the xenograft mice were used for in vivo biodistributions and imaging studies or the tumors were excised and further processed to obtain membrane preparations for in vitro assays as described previously.
(§2) Tumor-bearing mice (tumor weights: 0.1–0.8 g) were injected while awake via the tail vein with each of the tracers [0.74–3.7 MBq (20 to 100 µCi), 10 to 80 pmol] and euthanized (via CO2 inhalation) at selected times. […] Blood samples and tissues were excised from each animal, weighed, and radioactivity content was determined (Perkin Elmer 2480 Wizard3). Radioactivity content in the blood and each tissue was expressed as % injected dose per gram of tissue [%ID/g; (Formula (1))] and then normalized for body weight to a 20 g mouse (Formula (2)) from which Tissue:Muscle ratios [T:M; (Formula (3))] were determined as follows:(1) %ID/g =[counts per minute cpmtissue / tissue weight g]×100/cpmtotal injected dose
(§3) %ID/g (normalized to a 20 g mouse) = (%ID/g) × (body weight/20 g)(2)
(§4) (3) T:M=%ID/gtissue/%ID/gmuscle

PC3(+) xenografts [2] = assay: Blocking biodistribution study in PC3(+) xenografts, coinjection of non-radioactive DCFPyL; format: in vivo, mice; conditions: 60 min, coinjection of DCFPyL 1000×
Method: as §2, §3, §4

PSMA [3] = biological target: T1, PSMA; assay: In vitro saturation binding assay with PC3(+) tumor membrane preparations; conditions: saturation assays, mean (SE), n = 3–5
Method: as §1
In vitro saturation studies were performed to determine binding affinities (Kd) and PSMA expression levels (Bmax) using tumor membrane preparations from PC3(−) and PC3(+) PSMA xenografts (human prostate cancer cell line transfected with human PSMA; PC3(+)). […] Filter papers were collected, and the radioactive content was quantified by gamma counting (PerkinElmer 2480 Wizard3). […] Aliquots of each membrane preparation were taken for the determination of the protein concentration (Bradford method).

PC3(+) xenografts [4] = assay: In vivo biodistribution in PC3(+) xenograft mice; parameters: key to salivary gland T:M / Femur T:M / Blood T:M / Kidney T:M / Liver T:M: T:M = (%ID/g in tissue) / (%ID/g in muscle)
Method: as §1, §2, §3, §4

[5] = Fraction of intact tracer (parent) in blood and kidney by TLC; format: in vivo, mice; conditions: 60 min; mean ± SD, n = 2–5
Excerpt: In some cases, additional blood samples and/or tissue samples after gamma counting were taken for determining the fraction of intact radiolabeled tracer (parent) using thin-layer chromatography (TLC). For these TLC determinations: tissues were placed in equal volumes of acetonitrile and homogenized, or serum was obtained from the blood samples and mixed with an equal volume of acetonitrile. Following centrifugation of the samples, supernatants were collected and the radioactive content of the supernatants and pellets were determined. The supernatants were then applied to thin-layer chromatography (TLC) plates. The TLC plates were developed [solvent system: ethyl acetate (80%), methanol (10%) and acetic acid (10%)], and exposed on a phosphorimaging plate which was scanned the next day.

T1 sequence (Q04609 whole entry): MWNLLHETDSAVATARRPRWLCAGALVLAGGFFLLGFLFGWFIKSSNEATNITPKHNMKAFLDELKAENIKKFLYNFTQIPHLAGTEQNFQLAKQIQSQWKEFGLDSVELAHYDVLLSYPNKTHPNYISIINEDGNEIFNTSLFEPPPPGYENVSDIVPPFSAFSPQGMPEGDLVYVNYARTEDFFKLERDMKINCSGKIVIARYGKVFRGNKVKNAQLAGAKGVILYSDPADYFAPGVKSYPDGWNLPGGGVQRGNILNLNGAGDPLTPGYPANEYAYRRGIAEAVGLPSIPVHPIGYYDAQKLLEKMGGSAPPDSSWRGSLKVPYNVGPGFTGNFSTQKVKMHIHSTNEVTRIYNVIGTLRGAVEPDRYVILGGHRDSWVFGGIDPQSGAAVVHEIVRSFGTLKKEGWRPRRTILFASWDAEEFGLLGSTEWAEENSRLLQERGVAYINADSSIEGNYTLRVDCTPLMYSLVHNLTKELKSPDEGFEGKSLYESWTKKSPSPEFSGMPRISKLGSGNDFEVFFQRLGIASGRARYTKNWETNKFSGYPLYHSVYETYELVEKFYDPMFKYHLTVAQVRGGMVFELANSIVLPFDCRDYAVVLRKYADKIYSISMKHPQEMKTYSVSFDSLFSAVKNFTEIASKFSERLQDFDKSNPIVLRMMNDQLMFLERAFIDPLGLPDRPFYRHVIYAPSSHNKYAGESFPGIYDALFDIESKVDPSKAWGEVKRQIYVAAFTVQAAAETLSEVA

SMILES: O=C(O)CC[C@H](NC(=O)N[C@@H](CCCCNC(=O)CO/N=C\c1ccc(F)cc1)C(=O)O)C(=O)O [1a, (((S)-5-(2-(aminooxy)acetamido)-1-carboxypentyl)carbamoyl)-L-glutamic acid 4-fluorobenzaldehyde oxime, reference compound]
- Ki (PSMA [1]): 101 pM

SMILES: O=C(O)CC[C@H](NC(=O)N[C@@H](CCCCNC(=O)CCCCCO/N=C\c1ccc(F)nc1)C(=O)O)C(=O)O [2b, (((. S)-5-(6-(Aminooxy)hexanamido)-1-carboxypentyl)carbamoyl)-L-glutamic acid 6-fluoronicotinaldehyde oxime]
- Ki (PSMA [1]): 901 pM

SMILES: O=C(O)CC[C@H](NC(=O)N[C@@H](CCCCNC(=O)CCCCCO/N=C\c1ccc([18F])nc1)C(=O)O)C(=O)O [[^18F]2b]
- PC3(−) Tumor T:M (PC3(−) xenografts): 1.65 ± 0.20
- decrease of PC3(+) tumor T:M in blocked group compared to non-blocked group (PC3(+) xenografts [2]): 85%
- Kd (PSMA [3]): 489 pM
- decrease of PC3(+) tumor T:M compared to [18F]DCFPyL (PC3(+) xenografts [4]; 60 min): 27%
- decrease of blood radioactivity compared to [18F]DCFPyL (PC3(+) xenografts [4]; 60 min): 27%
- Radioactivity in the blood (PC3(+) xenografts [4]; 60 min (Figure 5A)): 0.377 %ID/g
- Blood T:M (PC3(+) xenografts [4]; 60 min, mean ± SE, n = 8–10): 2.04 ± 0.11
- Femur T:M (PC3(+) xenografts [4]; 60 min, mean ± SE, n = 8–10): 2.00 ± 0.18
- Kidney T:M (PC3(+) xenografts [4]; 60 min, mean ± SE, n = 8–10): 814.2 ± 71.9
- Liver T:M (PC3(+) xenografts [4]; 60 min, mean ± SE, n = 8–10): 44.6 ± 3.8
- PC3(+) Tumor T:M (PC3(+) xenografts [4]; 60 min, mean ± SE, n = 8–10): 90 and 89.9 ± 7.6
- %Parent compound in blood (TLC analysis) [5]: 78.8 ± 2.6%

Source: article PMC9144807, “Fluorine-18 Labeled Urea-Based Ligands Targeting Prostate-Specific Membrane Antigen (PSMA) with Increased Tumor and Decreased Renal Uptake” (Pharmaceuticals, 2022)
